From patent publication EP4516309A1, “CRHR1 AGONISTS FOR USE IN THE TREATMENT OF SOCIAL ANXIETY DISORDERS” (Consejo Superior de Investigaciones Cientificas, priority 2023, dated 2025)

Key:
[1] = target: T1, excitatory DREADD (Homo sapiens, UniProt P20309, A239G/Y149C); test: c-fos / mCherry overlap in ILA after familiar animal presentation, excitatory DREADD; assay type: in vivo, CRH-Cre mice; conditions: CNO i.p. 30 min before familiar animal presentation; vs. saline
T1 construct: host or cells: ILA CRH+ neurons of CRH-Cre mice, Cre-dependent AAV2/5 transduction in vivo
Method: (§1) Mice were anesthetized using isoflurane then perfused in the heart with 10 mL saline and their brains were quickly extracted and incubated in 4% PFA overnight. After 1 h washing in PBS, 60 µm slices were prepared using a Leica VT1000S vibratome (Leica Biosystems). Unless indicated otherwise, slices were permeabilized for 2h in PBS with 0.5% Triton-X100 (T9284, Sigma-Aldrich) in PBS before being incubated overnight at 4°C with primary antibodies diluted in PBS with 0.5% Triton-X in PBS. The slices were washed in PBS for 1 h then incubated overnight at 4°C with secondary antibodies from Thermo-Fisher Scientific at a concentration of 1:500 diluted in PBS with 0.1% Triton-X. Hoechst counterstain was applied (Hoechst 33342 at 1:1000 for 30 min in PBS at RT) prior to mounting the slice using fluoromount (Sigma-Aldrich). Images were acquired using inverted confocal microscopes (Ism 900, Zeiss and SPII, Leica) or an epifluorescent microscope (Thunder, Leica). For post-hoc immunocytochemistry after patch-clamp recordings, slices were fixed for 1 h in PBS with 4% PFA and streptavidin was applied during secondary incubation. • For mRuby and GFP labelling, primary incubation was performed overnight at 4°C with rabbit anti-RFP (1:500, Rockland Antibody, #600-401-379) and chicken anti-GFP (1:1000, Aves, #GFP-1020) antibodies. […]

[2] = target: T2, inhibitory DREADD (Homo sapiens, UniProt P08173, A203G/Y113C); test: c-fos / mCherry overlap in ILA after familiar animal presentation, inhibitory DREADD; assay type: in vivo, CRH-Cre mice; conditions: CNO i.p. 30 min before familiar animal presentation; vs. saline
T2 construct: host or cells: ILA CRH+ neurons of CRH-Cre mice, Cre-dependent AAV2/8 transduction in vivo
T2 sequence (P08173 1-479 Y113C/A203G): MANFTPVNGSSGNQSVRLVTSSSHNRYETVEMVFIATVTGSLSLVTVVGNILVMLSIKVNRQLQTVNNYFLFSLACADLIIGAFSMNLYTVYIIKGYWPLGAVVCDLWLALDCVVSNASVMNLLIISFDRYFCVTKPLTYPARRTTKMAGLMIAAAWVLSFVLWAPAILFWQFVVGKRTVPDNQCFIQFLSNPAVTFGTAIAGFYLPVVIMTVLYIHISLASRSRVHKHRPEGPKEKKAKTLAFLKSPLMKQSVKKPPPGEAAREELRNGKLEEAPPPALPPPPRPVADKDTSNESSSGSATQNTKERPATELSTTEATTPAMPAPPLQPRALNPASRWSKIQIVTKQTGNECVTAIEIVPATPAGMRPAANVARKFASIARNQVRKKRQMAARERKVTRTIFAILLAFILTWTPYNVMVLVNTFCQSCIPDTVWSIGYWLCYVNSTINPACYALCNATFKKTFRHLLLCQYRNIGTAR
Method: as §1

T1 sequence (P20309 whole entry Y149C/A239G): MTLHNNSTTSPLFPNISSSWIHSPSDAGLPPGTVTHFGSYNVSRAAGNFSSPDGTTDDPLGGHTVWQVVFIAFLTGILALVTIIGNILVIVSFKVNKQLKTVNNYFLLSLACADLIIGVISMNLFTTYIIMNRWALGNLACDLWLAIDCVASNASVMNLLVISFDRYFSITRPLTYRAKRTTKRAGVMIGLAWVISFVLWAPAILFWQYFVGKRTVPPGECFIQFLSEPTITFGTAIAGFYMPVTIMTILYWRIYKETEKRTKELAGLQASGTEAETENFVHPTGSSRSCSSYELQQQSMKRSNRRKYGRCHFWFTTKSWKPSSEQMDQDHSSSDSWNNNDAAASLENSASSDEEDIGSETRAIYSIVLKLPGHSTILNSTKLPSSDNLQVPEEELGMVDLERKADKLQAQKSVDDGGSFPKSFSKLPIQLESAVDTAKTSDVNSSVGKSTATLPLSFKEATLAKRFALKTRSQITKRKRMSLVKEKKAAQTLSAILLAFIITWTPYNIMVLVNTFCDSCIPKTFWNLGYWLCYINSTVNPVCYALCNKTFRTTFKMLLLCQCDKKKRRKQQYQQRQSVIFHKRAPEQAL

SMILES: C[N+]1([O-])CCN(C2=Nc3cc(Cl)ccc3Nc3ccccc32)CC1 [CNO, clozapine N-oxide]
- c-fos/mCherry+ overlap in ILA [1]: increased c-fos/mCherry+ overlap
- c-fos/mCherry+ cells in ILA [2]: less c-fos/mCherry+ cells compared to the saline control
